Laboratory results: PubChem BioAssay (NCI)
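Step 1: Grow cells in 96-well plates. Step 2: Expose to compound for 48 hours at 5 concentrations. Step 3: Interpolate endpoints linearly; if unreached, use highest concentration. GI50: concentration for 50% inhibition of growth. TGI marks complete inhibition of growth.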

Assays:
Assay in all cases: growth of human tumour cells (NCI), 48 h
SF-539 CNS = test system: SF-539 CNS
NCI-H226 lung = test system: NCI-H226 lung
PC-3 prostate = test system: PC-3 prostate
COLO 205 colon = test system: COLO 205 colon
UACC-62 melanoma = test system: UACC-62 melanoma
SK-MEL-28 melanoma = test system: SK-MEL-28 melanoma
SR leukemia = test system: SR leukemia
LOX IMVI melanoma = test system: LOX IMVI melanoma
RXF 393 renal = test system: RXF 393 renal
K-562 leukemia = test system: K-562 leukemia
MDA-MB-231 breast = test system: MDA-MB-231 breast
CAKI-1 renal = test system: CAKI-1 renal
SK-MEL-5 melanoma = test system: SK-MEL-5 melanoma
KM12 colon = test system: KM12 colon
MALME-3M melanoma = test system: MALME-3M melanoma
OVCAR-4 ovarian = test system: OVCAR-4 ovarian
T-47D breast = test system: T-47D breast
SW-620 colon = test system: SW-620 colon
OVCAR-5 ovarian = test system: OVCAR-5 ovarian
HOP-92 NSCLC = test system: HOP-92 NSCLC
HT29 colon = test system: HT29 colon
NCI-H460 lung = test system: NCI-H460 lung
SNB-19 CNS = test system: SNB-19 CNS
SF-295 CNS = test system: SF-295 CNS
SF-268 CNS = test system: SF-268 CNS
NCI-H23 lung = test system: NCI-H23 lung
CCRF-CEM leukemia = test system: CCRF-CEM leukemia
OVCAR-8 ovarian = test system: OVCAR-8 ovarian
HS 578T breast = test system: HS 578T breast
SK-MEL-2 melanoma = test system: SK-MEL-2 melanoma
SK-OV-3 ovarian = test system: SK-OV-3 ovarian
BT-549 breast = test system: BT-549 breast
ACHN renal = test system: ACHN renal
MDA-MB-435 = test system: MDA-MB-435
HOP-62 NSCLC = test system: HOP-62 NSCLC
UO-31 renal = test system: UO-31 renal
IGROV1 ovarian = test system: IGROV1 ovarian
SN12C renal = test system: SN12C renal
OVCAR-3 ovarian = test system: OVCAR-3 ovarian
RPMI-8226 leukemia = test system: RPMI-8226 leukemia
UACC-257 melanoma = test system: UACC-257 melanoma
NCI-H522 lung = test system: NCI-H522 lung
A549 NSCLC = test system: A549 NSCLC
SNB-75 CNS = test system: SNB-75 CNS
U251 CNS = test system: U251 CNS
HCC-2998 colon = test system: HCC-2998 colon
HCT-116 colon = test system: HCT-116 colon
786-0 renal = test system: 786-0 renal
HCT-15 colon = test system: HCT-15 colon
DU-145 prostate = test system: DU-145 prostate
HL-60(TB) leukemia = test system: HL-60(TB) leukemia
MCF7 breast = test system: MCF7 breast
NCI/ADR-RES ovarian = test system: NCI/ADR-RES ovarian
MOLT-4 leukemia = test system: MOLT-4 leukemia
TK-10 renal = test system: TK-10 renal

Structure (SMILES): COc1ccc(C(C)=O)cc1N1C(=O)C2C(C1=O)C1(c3ccccc3)C(=O)C2(c2ccccc2)C(c2ccc(C)cc2)=C1c1ccc(C)cc1 (stereo not given)
- GI50 (SF-539 CNS): > 100 µM
- TGI (SF-539 CNS): > 100 µM
- GI50 (NCI-H226 lung): > 100 µM
- TGI (NCI-H226 lung): > 100 µM
- GI50 (PC-3 prostate): > 100 µM
- TGI (PC-3 prostate): > 100 µM
- GI50 (COLO 205 colon): > 100 µM
- TGI (COLO 205 colon): > 100 µM
- GI50 (UACC-62 melanoma): > 100 µM
- TGI (UACC-62 melanoma): > 100 µM
- GI50 (SK-MEL-28 melanoma): > 100 µM
- TGI (SK-MEL-28 melanoma): > 100 µM
- GI50 (SR leukemia): > 100 µM
- TGI (SR leukemia): > 100 µM
- GI50 (LOX IMVI melanoma): > 100 µM
- TGI (LOX IMVI melanoma): > 100 µM
- GI50 (RXF 393 renal): > 100 µM
- TGI (RXF 393 renal): > 100 µM
- GI50 (K-562 leukemia): > 100 µM
- TGI (K-562 leukemia): > 100 µM
- GI50 (MDA-MB-231 breast): 33.1 µM
- TGI (MDA-MB-231 breast): > 100 µM
- GI50 (CAKI-1 renal): 17.6 µM
- TGI (CAKI-1 renal): > 100 µM
- GI50 (SK-MEL-5 melanoma): > 100 µM
- TGI (SK-MEL-5 melanoma): > 100 µM
- GI50 (KM12 colon): > 100 µM
- TGI (KM12 colon): > 100 µM
- GI50 (MALME-3M melanoma): > 100 µM
- TGI (MALME-3M melanoma): > 100 µM
- GI50 (OVCAR-4 ovarian): > 100 µM
- TGI (OVCAR-4 ovarian): > 100 µM
- GI50 (T-47D breast): > 100 µM
- TGI (T-47D breast): > 100 µM
- GI50 (SW-620 colon): > 100 µM
- TGI (SW-620 colon): > 100 µM
- GI50 (OVCAR-5 ovarian): > 100 µM
- TGI (OVCAR-5 ovarian): > 100 µM
- GI50 (HOP-92 NSCLC): 21.7 µM
- TGI (HOP-92 NSCLC): > 100 µM
- GI50 (HT29 colon): > 100 µM
- TGI (HT29 colon): > 100 µM
- GI50 (NCI-H460 lung): > 100 µM
- TGI (NCI-H460 lung): > 100 µM
- GI50 (SNB-19 CNS): > 100 µM
- TGI (SNB-19 CNS): > 100 µM
- GI50 (SF-295 CNS): > 100 µM
- TGI (SF-295 CNS): > 100 µM
- GI50 (SF-268 CNS): > 100 µM
- TGI (SF-268 CNS): > 100 µM
- GI50 (NCI-H23 lung): > 100 µM
- TGI (NCI-H23 lung): > 100 µM
- GI50 (CCRF-CEM leukemia): > 100 µM
- TGI (CCRF-CEM leukemia): > 100 µM
- GI50 (OVCAR-8 ovarian): > 100 µM
- TGI (OVCAR-8 ovarian): > 100 µM
- GI50 (HS 578T breast): > 100 µM
- TGI (HS 578T breast): > 100 µM
- GI50 (SK-MEL-2 melanoma): > 100 µM
- TGI (SK-MEL-2 melanoma): > 100 µM
- GI50 (SK-OV-3 ovarian): > 100 µM
- TGI (SK-OV-3 ovarian): > 100 µM
- GI50 (BT-549 breast): > 100 µM
- TGI (BT-549 breast): > 100 µM
- GI50 (ACHN renal): > 100 µM
- TGI (ACHN renal): > 100 µM
- GI50 (MDA-MB-435): > 100 µM
- TGI (MDA-MB-435): > 100 µM
- GI50 (HOP-62 NSCLC): > 100 µM
- TGI (HOP-62 NSCLC): > 100 µM
- GI50 (UO-31 renal): > 100 µM
- TGI (UO-31 renal): > 100 µM
- GI50 (IGROV1 ovarian): > 100 µM
- TGI (IGROV1 ovarian): > 100 µM
- GI50 (SN12C renal): > 100 µM
- TGI (SN12C renal): > 100 µM
- GI50 (OVCAR-3 ovarian): > 100 µM
- TGI (OVCAR-3 ovarian): > 100 µM
- GI50 (RPMI-8226 leukemia): > 100 µM
- TGI (RPMI-8226 leukemia): > 100 µM
- GI50 (UACC-257 melanoma): > 100 µM
- TGI (UACC-257 melanoma): > 100 µM
- GI50 (NCI-H522 lung): > 100 µM
- TGI (NCI-H522 lung): > 100 µM
- GI50 (A549 NSCLC): > 100 µM
- TGI (A549 NSCLC): > 100 µM
- GI50 (SNB-75 CNS): > 100 µM
- TGI (SNB-75 CNS): > 100 µM
- GI50 (U251 CNS): > 100 µM
- TGI (U251 CNS): > 100 µM
- GI50 (HCC-2998 colon): > 100 µM
- TGI (HCC-2998 colon): > 100 µM
- GI50 (HCT-116 colon): > 100 µM
- TGI (HCT-116 colon): > 100 µM
- GI50 (786-0 renal): > 100 µM
- TGI (786-0 renal): > 100 µM
- GI50 (HCT-15 colon): > 100 µM
- TGI (HCT-15 colon): > 100 µM
- GI50 (DU-145 prostate): > 100 µM
- TGI (DU-145 prostate): > 100 µM
- GI50 (HL-60(TB) leukemia): > 100 µM
- TGI (HL-60(TB) leukemia): > 100 µM
- GI50 (MCF7 breast): > 100 µM
- TGI (MCF7 breast): > 100 µM
- GI50 (NCI/ADR-RES ovarian): > 100 µM
- TGI (NCI/ADR-RES ovarian): > 100 µM
- GI50 (MOLT-4 leukemia): > 100 µM
- TGI (MOLT-4 leukemia): > 100 µM
- GI50 (TK-10 renal): > 100 µM
- TGI (TK-10 renal): > 100 µM
